# In patent US12581252B2, “Substituted pyrrolo[3,4-b]pyridines as PI3K-α inhibitors” (Relay Therapeutics, Inc., priority 2020, dated 2026):
# Biological target: H1047R PIK3CA enzyme (Homo sapiens, UniProt P42336, H1047R)
# Experiment: ADP-Glo Biochemical PIK3CA Kinase Assay
# H1047R PIK3CA enzyme, sequence (P42336 whole entry H1047R): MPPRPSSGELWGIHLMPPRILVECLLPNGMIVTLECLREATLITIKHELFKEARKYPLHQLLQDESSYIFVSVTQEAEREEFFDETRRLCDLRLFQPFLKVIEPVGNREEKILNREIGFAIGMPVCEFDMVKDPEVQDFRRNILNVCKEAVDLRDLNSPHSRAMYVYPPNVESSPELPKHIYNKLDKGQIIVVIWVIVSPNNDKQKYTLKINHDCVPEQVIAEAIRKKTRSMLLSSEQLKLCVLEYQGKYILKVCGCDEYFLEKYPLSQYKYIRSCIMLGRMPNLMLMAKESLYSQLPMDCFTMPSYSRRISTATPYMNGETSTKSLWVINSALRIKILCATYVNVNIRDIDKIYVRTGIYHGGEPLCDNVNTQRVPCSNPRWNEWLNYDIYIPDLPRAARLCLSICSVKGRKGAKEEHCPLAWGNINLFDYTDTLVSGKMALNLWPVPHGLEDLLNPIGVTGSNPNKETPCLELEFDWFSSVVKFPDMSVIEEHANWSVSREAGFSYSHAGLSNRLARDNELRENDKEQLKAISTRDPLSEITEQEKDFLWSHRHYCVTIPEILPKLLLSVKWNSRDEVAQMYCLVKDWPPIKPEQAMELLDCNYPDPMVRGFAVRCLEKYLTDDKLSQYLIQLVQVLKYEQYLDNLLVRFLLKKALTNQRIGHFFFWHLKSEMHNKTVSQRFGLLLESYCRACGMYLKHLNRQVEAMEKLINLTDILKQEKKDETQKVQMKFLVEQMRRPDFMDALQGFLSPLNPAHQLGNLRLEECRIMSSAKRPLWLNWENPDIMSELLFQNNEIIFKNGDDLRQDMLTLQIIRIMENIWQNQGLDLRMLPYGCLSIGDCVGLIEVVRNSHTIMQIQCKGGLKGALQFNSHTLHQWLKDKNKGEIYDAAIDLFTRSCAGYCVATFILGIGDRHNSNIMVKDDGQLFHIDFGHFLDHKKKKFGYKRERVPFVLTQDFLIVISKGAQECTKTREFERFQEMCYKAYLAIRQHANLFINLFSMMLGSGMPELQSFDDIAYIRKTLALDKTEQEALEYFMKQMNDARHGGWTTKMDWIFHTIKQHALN
# H1047R PIK3CA enzyme, sequence (P27986 whole entry partner): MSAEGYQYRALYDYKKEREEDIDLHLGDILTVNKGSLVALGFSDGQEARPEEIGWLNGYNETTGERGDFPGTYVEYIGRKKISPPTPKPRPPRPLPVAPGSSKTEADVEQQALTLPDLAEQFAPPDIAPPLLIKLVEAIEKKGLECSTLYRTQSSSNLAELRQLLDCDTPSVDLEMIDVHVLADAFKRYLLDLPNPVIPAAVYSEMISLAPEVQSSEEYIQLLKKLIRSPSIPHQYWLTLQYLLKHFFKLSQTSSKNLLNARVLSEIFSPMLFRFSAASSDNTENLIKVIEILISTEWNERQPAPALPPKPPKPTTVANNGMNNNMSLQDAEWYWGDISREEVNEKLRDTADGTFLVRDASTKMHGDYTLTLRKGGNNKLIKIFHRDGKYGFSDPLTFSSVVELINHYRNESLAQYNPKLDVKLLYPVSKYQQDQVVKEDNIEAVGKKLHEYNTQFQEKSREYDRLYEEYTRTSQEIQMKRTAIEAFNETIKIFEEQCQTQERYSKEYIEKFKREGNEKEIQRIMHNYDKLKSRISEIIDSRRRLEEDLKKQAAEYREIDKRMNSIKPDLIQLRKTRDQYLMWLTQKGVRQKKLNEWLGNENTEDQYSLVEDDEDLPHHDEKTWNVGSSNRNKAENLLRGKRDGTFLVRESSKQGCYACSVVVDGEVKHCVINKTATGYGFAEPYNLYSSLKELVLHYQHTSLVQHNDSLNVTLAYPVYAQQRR
row,Compound,IC50 [µM]
1,"C[C@@](O)(CC#N)c1cc(NC(=O)c2cc(F)cc(C(F)(F)F)c2)c2c(c1)C(=O)N[C@H]2c1cc(F)ccc1Cl (single isomer, unassigned) [Compound I-1395]",≤ 0.1
2,O=C(Nc1cc(-c2cc(F)n3ncnc3c2)cc2c1[C@@H](c1cc(F)ccc1Cl)NC2=O)c1cc(F)cc(C(F)(F)F)c1 [Compound I-1926],1 to 10
3,O=C(Nc1cc(-c2ccc3ncccc3c2)cc2c1C(c1cc(F)ccc1Cl)NC2=O)c1cc(F)cc(C(F)(F)F)c1 (stereo not shown) [Compound I-737],≤ 0.1
4,"N#Cc1cnn(Cc2cc(NC(=O)N3C[C@@](O)(C(F)(F)F)c4cc(F)ccc43)c3c(c2)C(=O)N[C@H]3c2cc(F)ccc2Cl)c1 (single isomer, unassigned) [Compound I-2672]",10 to 100
5,Nc1ccc(COc2cc(NC(=O)c3cc(F)cc(C(F)(F)F)c3)c3c(c2)C(=O)NC3c2cc(F)ccc2Cl)cn1 (stereo not shown) [Compound I-1736],≤ 0.1
6,O=C1NC(c2cc(F)ccc2Cl)c2c(NC(=O)N3CCC(F)(F)C3)cc(Br)cc21 (stereo not shown) [Compound I-482],1 to 10
7,O=C1N[C@@H](c2cc(F)ccc2Cl)c2c(NC(=O)N3C[C@@H](O)C[C@@H]3CC(F)(F)F)cccc21 (racemic) [Compound I-2164],1 to 10
8,"[2H]C1([2H])N(C(=O)Nc2cccc3c2[C@@H](c2cc(F)ccc2Cl)NC3=O)c2ccc(F)cc2[C@]1(O)C(F)(F)F (single isomer, unassigned) [Compound I-2592]",1 to 10
9,O=C(COc1ccccc1)Nc1cc(-c2ccc3ncnn3c2)cc2c1C(c1cc(F)ccc1Cl)NC2=O (stereo not shown) [Compound I-1688],10 to 100
10,O=C(Nc1ccnc2c1C(c1ccccc1Cl)NC2=O)c1ccnc2c1CCC2 (stereo not shown) [Compound I-240],10 to 100
11,O=C(Nc1cc(-c2cn3cccnc3n2)cc2c1C(c1cc(F)ccc1Cl)NC2=O)c1cc(F)cc(C(F)(F)F)c1 (stereo not shown) [Compound I-1355],≤ 0.1
12,O=C(Nc1cccc2c1[C@H]([C@@H]1COCCN1)NC2=O)c1cc(F)cc(C(F)(F)F)c1 (racemic) [Compound I-1901],10 to 100
13,"O=C(Nc1cc(NC2=NC[C@@H](C(F)(F)F)O2)cc2c1[C@@H](c1cc(F)ccc1Cl)NC2=O)c1cc(F)cc(C(F)(F)F)c1 (single isomer, unassigned) [Compound I-2326]",1 to 10
14,"O=C1N[C@H](c2cc(F)ccc2Cl)c2c(NC(=O)N3CCc4cc(F)ccc43)cc(-c3cnn(C(F)F)c3)cc21 (single isomer, unassigned) [Compound I-2356]",1 to 10
15,Cc1ccccc1C1NC(=O)c2c(CCO)ccc(NC(=O)c3nsc4ccccc34)c21 (stereo not shown) [Compound I-434],≤ 0.1
16,O=C(Nc1cc(Br)cc2c1C(c1cc(F)ccc1Cl)NC2=O)c1ccnc(C(F)(F)F)c1F (stereo not shown) [Compound I-607],10 to 100
17,O=C(Nc1cc(-c2cnc(-n3ccnc3)nc2)cc2c1C(c1cc(F)ccc1Cl)NC2=O)c1cc(F)cc(C(F)(F)F)c1 (stereo not shown) [Compound I-1482],≤ 0.1
18,O=C(Nc1cccc2c1C(C1NC3CCC1C3)NC2=O)c1cc(F)cc(C(F)(F)F)c1 (stereo not shown) [Compound I-2076],10 to 100
19,"CC[C@@]1(O)CN(C(=O)Nc2cccc3c2[C@H](c2cc(F)ccc2Cl)NC3=O)c2ccc(F)cc21 (single isomer, unassigned) [Compound I-2463]",1 to 10
20,O=C(Nc1cc(CS(=O)(=O)c2ccncc2)cc2c1C(c1cc(F)ccc1Cl)NC2=O)c1cc(F)cc(C(F)(F)F)c1 (stereo not shown) [Compound I-1495],≤ 0.1
21,"Cc1ccccc1C1NC(=O)c2c(N)ncc(NC(=O)c3cc(F)cc(C(F)(F)F)c3)c21 (stereo not shown) [Compound I-262, N-(4-Amino-3-oxo-1-(o-tolyl)-2,3-dihydro-1H-pyrrolo[3,4-c]pyridin-7-yl)-3-fluoro-5-(trifluoromethyl)benzamide]",0.1 to 0.5
22,"C[C@H](C#N)Oc1cc(NC(=O)c2cc(F)cc(C(F)(F)F)c2)c2c(c1)C(=O)N[C@@H]2c1cc(F)ccc1Cl (single isomer, unassigned) [Compound I-2005]",1 to 10
